Data taken from patent US10239884B2, “Coelenterazine compounds and uses thereof” (KEIO UNIVERSITY, priority 2017, dated 2019).

How the values were obtained:
[1] = target: T1, RLuc8.6-535 (Renilla reniformis, UniProt P27652, A123S/A143M/A55T/C124A/D154M/D162E/E155G/I163L/K136R/M185L/M253L/S130A/S287L); format: biochemical; set-up: expressed in transfected cells; host or cells: COST cells (so in the source); settings: 2 μM substrate in PBS pH 7.4, cell lysate, maximum intensity over 1 second, relative value
T1 sequence (P27652 whole entry A55T/A123S/C124A/S130A/K136R/A143M/D154M/E155G/D162E/I163L/M185L/M253L/S287L): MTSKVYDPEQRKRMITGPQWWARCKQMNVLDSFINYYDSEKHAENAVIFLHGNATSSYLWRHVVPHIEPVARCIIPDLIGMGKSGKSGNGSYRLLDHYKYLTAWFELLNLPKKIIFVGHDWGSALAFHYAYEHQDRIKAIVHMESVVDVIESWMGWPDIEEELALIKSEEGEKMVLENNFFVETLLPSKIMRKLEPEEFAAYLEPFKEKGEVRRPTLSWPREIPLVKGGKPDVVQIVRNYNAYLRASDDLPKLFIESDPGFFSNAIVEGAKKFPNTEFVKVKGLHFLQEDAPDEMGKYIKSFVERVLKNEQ
Text: (§1) The luciferases were respectively expressed in COST cells using an expression vector (pcDNA3.1(+), commercially available from Invitrogen) comprising the sequence encoding native Renilla Luciferase (RLuc) (trade name pGL4.75, commercially available from Promega) or an expression vector (trade name pcDNA3.1(+), commercially available from Invitrogen) comprising the sequence encoding a RLuc derivative RLuc8 or RLuc8.6-535 (Reference: Loening, A. M. et al., Nat. Methods, 2007, 4, 641-643.). The cells were lysed using a Renilla Luciferase Lysis Buffer (E291A, Promega), and the lysate was directly used as an enzyme solution. […] Bioluminescence was measured according to the protocol of Renilla Luciferase Assay System (Cat. No. E 2810; Promega). The luminescent substrate was dissolved in methanol to prepare a 2 mM solution. The solution was diluted to 2 μM with PBS buffer (pH 7.4), and the diluted solution was used as a substrate solution. To 200 μL of the substrate solution, 4 μL of the cell lysate containing RLuc, RLuc 8 or RLuc8.6-535 was added to start the luminescent reaction. The luminescence intensity was measured with a Berthold Lumat LB 9507 for 1 second, and indicated by the maximum luminescence intensity (I). The luminescence intensity of the native CTZ by RLuc8 was set to be 1.0, and the other bioluminescence intensities were normalized to be relative values to that of native CTZ.

[2] = target: T2, RLuc8 (Renilla reniformis, UniProt P27652, A143M/A55T/C124A/K136R/M185V/M253L/S130A/S287L); format: biochemical; settings: bioluminescence spectrum, ATTO LumiFL
T2 construct: expressed in transfected cells; host or cells: COST cells (so in the source)
T2 sequence (P27652 whole entry A55T/C124A/S130A/K136R/A143M/M185V/M253L/S287L): as the sequence (P27652 whole entry A55T/A123S/C124A/S130A/K136R/A143M/D154M/E155G/D162E/I163L/M185L/M253L/S287L) above, with S123A, M154D, G155E, E162D, L163I, L185V counted along it
Method: (§2) As in the method for measuring bioluminescence intensity described above, luminescence spectrum was measured according to the protocol of Renilla Luciferase Assay System (Cat. No. E 2810; Promega). The luminescence spectrum was measured using ATTO LumiFL. The maximum luminescence intensities were normalized to be relative values to 1.0 upon determination of the maximum luminescence wavelength.

[3] = target: T1, RLuc8.6-535; format: biochemical; set-up: expressed in transfected cells; host or cells: COST cells (so in the source); settings: bioluminescence spectrum, ATTO LumiFL
Method: as §2

[4] = target: T2, RLuc8; format: biochemical; settings: 2 μM substrate in PBS pH 7.4, cell lysate, maximum intensity over 1 second, relative value
Text: as §1

[5] = target: T3, Renilla Luciferase (RLuc) (Renilla reniformis, UniProt P27652); settings: cited from earlier work
T3 sequence (P27652 1-311): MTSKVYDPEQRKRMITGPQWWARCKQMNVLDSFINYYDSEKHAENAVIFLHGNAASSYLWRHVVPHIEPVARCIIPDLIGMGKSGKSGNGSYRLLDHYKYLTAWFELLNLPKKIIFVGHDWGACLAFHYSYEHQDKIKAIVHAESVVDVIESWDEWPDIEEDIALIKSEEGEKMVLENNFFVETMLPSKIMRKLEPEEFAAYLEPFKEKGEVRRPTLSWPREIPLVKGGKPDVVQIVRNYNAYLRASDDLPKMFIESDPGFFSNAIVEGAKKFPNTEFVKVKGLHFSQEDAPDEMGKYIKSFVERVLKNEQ

Row | SMILES | RLuc8.6-535 luminescence intensity (%) [1] [%] | RLuc8 half-width (nm) [2] | RLuc8 maximum luminescence wavelength (nm) [2] | RLuc8.6-535 half-width (nm) [3] | RLuc8.6-535 maximum luminescence wavelength (nm) [3] [nm] | RLuc8 luminescence intensity (%) [4] [%] | luminescence intensity relative to the native RLuc luminescence system [5] | shift of luminescence wavelength to the shorter wavelength side compared to native CTZ [5] | luminescence wavelength ([5]; emits light at around)
1 | O=c1c(Cc2ccccc2)nc2c(Cc3ccccc3)[nH]c(-c3ccc(OCCO)cc3)cn1-2 [6-Alkyl2OH-2H-CTZ] | 6.24 | [65] nm | 413 nm | [68] nm | 407 | 6.21 | – | – | –
2 | O=c1c(Cc2ccc(O)cc2)nc2c(Cc3ccccc3)[nH]c(-c3ccc(OCCO)cc3)cn1-2 [6-Alkyl2OH-CTZ] | 43.2 | [59] nm | 411 nm | [56] nm | 411 | 15.0 | – | – | –
3 | CCCCOc1ccc(-c2cn3c(=O)c(Cc4ccccc4)nc-3c(Cc3ccccc3)[nH]2)cc1 [6-Alkyl3-2H-CTZ] | 28.4 | [50] nm | 411 nm | [53] nm | 413 | 2.00 | – | – | –
4 | O=c1c(Cc2ccccc2)nc2c(Cc3ccccc3)[nH]c(-c3ccc(OCCCO)cc3)cn1-2 [6-Alkyl3OH-2H-CTZ] | 23.9 | [65] nm | 411 nm | [56] nm | 413 | 5.03 | – | – | –
5 | COCCCOc1ccc(-c2cn3c(=O)c(Cc4ccccc4)nc-3c(Cc3ccccc3)[nH]2)cc1 [6-Alkyl3OMe-2H-CTZ] | 29.3 | [49] nm | 416 nm | [53] nm | 413 | 2.93 | – | – | –
6 | O=c1c(Cc2ccccc2)nc2c(Cc3ccccc3)[nH]c(-c3ccc(OCCCCO)cc3)cn1-2 [6-Alkyl4OH-2H-CTZ] | 23.9 | [69] nm | 404 nm | [68] nm | 405 | 3.45 | – | – | –
7 | O=c1c(Cc2ccc(O)cc2)nc2c(Cc3ccccc3)[nH]c(-c3ccc(OCCCCO)cc3)cn1-2 [6-Alkyl4OH-CTZ] | 59.8 | [69] nm | 404 nm | [60] nm | 412 | 11.8 | – | – | –
8 | O=c1c(Cc2ccccc2)nc2c(Cc3ccccc3)[nH]c(-c3ccc(OCCCCCO)cc3)cn1-2 [6-Alkyl5OH-2H-CTZ] | 18.0 | [70] nm | 403 nm | [68] nm | 406 | 2.88 | – | – | –
9 | COCc1ccc(-c2cn3c(=O)c(Cc4ccccc4)nc-3c(Cc3ccccc3)[nH]2)cc1 [6-Ether-2H-CTZ, reference compound] | 2.17 | – | (393) nm | [53] nm | 406 | 0.36 | – | – | –
10 | CCc1ccc(-c2cn3c(=O)c(Cc4ccccc4)nc-3c(Cc3ccccc3)[nH]2)cc1 [6-Ethyl-2H-CTZ] | 18.0 | – | (402) nm | [50] nm | 411 | 0.62 | – | – | –
11 | Cc1ccc(-c2cn3c(=O)c(Cc4ccccc4)nc-3c(Cc3ccccc3)[nH]2)cc1 [6-Methyl-2H-CTZ] | 25.3 | [45] nm | 408 nm | [49] nm | 411 | 1.44 | – | – | –
12 | O=c1c(Cc2ccccc2)nc2c(Cc3ccccc3)[nH]c(-c3ccccc3)cn1-2 [DeepBlueC (trade name), reference compound] | 5.80 | [57] nm | 416 nm | [51] nm | 410 | 2.30 | about 4% | about 80 nm | around 400 nm
13 | CCCCOc1ccc(-c2cn3c(=O)c(Cc4ccc(O)cc4)nc-3c(Cc3ccccc3)[nH]2)cc1 [Example 6-Alkyl3-CTZ] | 39.6 | [46] nm | (413) nm | [60] nm | 412 | 8.07 | – | – | –
14 | COCc1ccc(-c2cn3c(=O)c(Cc4ccc(O)cc4)nc-3c(Cc3ccccc3)[nH]2)cc1 [Example 6-Ether-CTZ, reference compound] | 8.94 | – | (420) nm | [49] nm | 411 | 0.85 | – | – | –
15 | CCc1ccc(-c2cn3c(=O)c(Cc4ccc(O)cc4)nc-3c(Cc3ccccc3)[nH]2)cc1 [Example 6-Ethyl-CTZ] | 29.4 | – | (410) nm | [60] nm | 406 | 2.68 | – | – | –
